Measured values: patent US9107894B2, “Formulation to improve gastrointestinal function” (University of Florida Research Foundation, Inc., priority 2007, dated 2015)

What was measured:
Caco-2 cells = assay: Poly (I:C) induced IL-8 production in differentiated Caco-2 cells (ELISA); assay type: cell-based, human
Description: In order to determine whether DHA has an effect on inducers of inflammation other than TNFα, stimulation of another Toll-like receptor was evaluated. Polyriboinosinic polyribocytidylic acid [poly(I:C)] is a synthetic double-stranded RNA that is used experimentally to model viral infections. It has recently been identified as one of the critical stimuli for toll like receptor 3 (TLR3). The effects of n-3 PUFA on viral induced inflammation in intestinal epithelia have not been reported.
Docosahexaenoic acid (DHA, 22:6 n-3) was used as n-3 PUFA and linoleic acid (LA, 18:2 n-6) as n-6 PUFA. Differentiated Caco-2 cells were pretreated with various doses of DHA or LA for 24 hours. The cells were then treated with poly (I: C) 50 ug/ml for another 24 hours. The culture medium was collected to measure the IL-8 production by ELISA. The first experiment determined the effect of Poly (I: C) on stimulation of IL-8, a major pro-inflammatory chemokine. Poly (I:C) increased IL-8 production by 10 fold.

CINC peptide = CINC peptide in gastrostomy fed (pup-in-a-cup), LPS treated rat pups; assay type: in vivo; details: for decrease of intestinal CINC peptide: intestine
From the text: Using the “pup-in-a-cup” rat model, protein deprivation and supplementation with GLN or GLU in the developing rat small intestine were examined. Four groups of 6-7 d old pups were fed via a gastrostomy tube providing 100% or 25% protein (relative to mother fed rats) rat milk substitute (RMS) with and without additional GLN or glutamate (GLU) for 6 d. Pups receiving the 100% protein RMS experienced better growth than the 3 groups of pups receiving the 25% protein RMS+/−GLN/GLU supplementation.
(§1) Cytokine induced neutrophil chemoattractant (CINC) is a rodent chemokine that performs neutrophil chemoattractant functions similar to IL-8 in the human. Large quantities of this proinflammatory mediator can be detrimental.
Intestinal CINC peptide in the LPS treated pups provided 100% and 25% protein was elevated about 13 fold compared to the mother reared pups. GLN and GlU decreased intestinal CINC peptide by 73 and 80%, respectively.

CINC mRNA = CINC mRNA in small intestine by RT-PCR, protein deprived LPS treated rat pups; assay type: in vivo; details: 25% protein-fed, densitometry
Description: as §1, with “detrimental. […] To clarify the effects of diets on the CINC mRNA in small intestine, RT-PCR was performed.” for “detrimental.”

myeloperoxidase (MPO) = assay: Intestinal myeloperoxidase activity in gastrostomy fed, LPS treated rats; assay type: in vivo, rat
From the text: An approximate 6-fold elevation of intestinal myeloperoxidase (MPO) activity in the gastrostomy fed, LPS treated rats was decreased by GLN and Glu by 92% and 54%, respectively.

[1] = tested on: developing rat small intestine; assay: Pup-in-a-cup rat model: growth, villus size and tight junction proteins under protein deprivation; assay type: in vivo; details: for villus height and area: 6-7 d old pups fed rat milk substitute for 6 d; for growth of pups: 6-7 d old pups fed rat milk substitute via gastrostomy tube for 6 d
From the text: Using the “pup-in-a-cup” rat model, protein deprivation and supplementation with GLN or GLU in the developing rat small intestine were examined. Four groups of 6-7 d old pups were fed via a gastrostomy tube providing 100% or 25% protein (relative to mother fed rats) rat milk substitute (RMS) with and without additional GLN or glutamate (GLU) for 6 d. […] Villus size is a major component of absorptive capability. […] The tight junction proteins play an integral role in paracellular permeability of the intestinal barrier, and two of these, claudin and occludin were evaluated using Western blotting.

IEC-6 = assay: Proliferation of rat intestinal crypt cells (IEC-6) in the absence of GLN; assay type: cell-based; details: GLN synthetase inhibited cells, all treatment doses
Description: Studies were conducted to evaluate whether glutamate, a mixture of nucleotide monophosphates, arginine, or glucosamine could support proliferation of rat intestinal crypt cells (IEC-6) in the absence of GLN.

H4 cells = assay: TNFα-induced IL-8 production in H4 cells; assay type: cell-based, human; details: H4, 24 h pretreatment, TNF-α 1 μg/L for 24 h
Description: EPA and DHA were used as n-3 PUFA and linoleic acid (LA, 18:2 n-6) as n-6 PUFA. The H4 and Caco-2 cells were pretreated with different doses of EPA, DHA and LA separately and in different combinations for 24 hours. Then TNF-α (1 μg/L for H4, 50 μg/L for Caco-2 cells) was added to cell culture medium and the cells were incubated for another 24 hours. The lower dose used in the H4 cell line reflects their exquisite sensitivity to inflammatory stimuli.
The effects of different doses of fatty acids on TNFα-induced IL-8 production were evaluated and are seen in FIGS. 2A-B.

BBDP rats = assay: Mortality due to diabetes in BBDP rats; assay type: in vivo, rat

CC/C=C\C/C=C\C/C=C\C/C=C\C/C=C\C/C=C\CCC(=O)O [DHA, docosahexaenoic acid]
decrease of poly (I:C)-induced IL-8 production (Caco-2 cells; 100 μM, 24 h pretreatment, poly (I:C) 50 ug/ml 24 h): 75%

NC(=O)CC[C@H](N)C(=O)O [GLN, glutamine]
decrease of intestinal CINC peptide (CINC peptide): 73% | plasma CINC peptide (CINC peptide): decreased plasma CINC peptide | CINC mRNA expression in small intestine (CINC mRNA): decreased CINC mRNA to a level similar to mother-fed animals | decrease of intestinal myeloperoxidase (MPO) activity (myeloperoxidase (MPO)): 92% | villus height and area [1]: did not differ | growth of pups [1]: neither GLN nor GLU alone can rescue the effects of protein deprivation

N[C@@H](CCC(=O)O)C(=O)O [Glu, glutamate]
decrease of intestinal CINC peptide (CINC peptide): 80% | plasma CINC peptide (CINC peptide): but not Glu decreased plasma CINC peptide | CINC mRNA expression in small intestine (CINC mRNA): did not show the same effect as GLN | decrease of intestinal myeloperoxidase (MPO) activity (myeloperoxidase (MPO)): 54% | villus height and area [1]: did not differ | growth of pups [1]: neither GLN nor GLU alone can rescue the effects of protein deprivation | proliferation (IEC-6): decrease in proliferation compared with cells treated with GLN

CCCCC/C=C\C/C=C\CCCCCCCC(=O)O [LA, linoleic acid]
effect on TNF-α induced IL-8 production (H4 cells): greater inflammatory effects on IL-8 production in H4 than in Caco-2 cells | poly (I:C)-induced IL-8 production (Caco-2 cells; doses of 50 and 100 μM, 24 h pretreatment): did not significantly reduce IL-8 production

CCCC(=O)[O-].[Na+] [NaB]
mortality due to diabetes (BBDP rats): decrease mortality due to diabetes

N=C(N)NCCC[C@H](N)C(=O)O [arginine]
proliferation (IEC-6): decrease in proliferation compared with cells treated with GLN

N[C@H]1C(O)O[C@H](CO)[C@@H](O)[C@@H]1O (some centres unmarked) [glucosamine]
proliferation (IEC-6): decrease in proliferation compared with cells treated with GLN

Polyriboinosinic polyribocytidylic acid [Poly (I:C)]
increase of IL-8 production (Caco-2 cells; poly (I:C) 50 ug/ml, 24 hours): 10 fold
